According to article PMC6572996, “Silver(I) Complexes of the Pharmaceutical Agents Metronidazole and 4-Hydroxymethylpyridine: Comparison of Cytotoxic Profile for Potential Clinical Application” (Molecules, 2019):
Where two headings read alike, the source gives them in different places.

Columns and labels:
[1] = Cytotoxicity over four assays in both cell lines; format: cell-based; conditions: mouse (Balb/c 3T3) and human (HepG2), Balb/c 3T3 clone A31 fibroblasts and HepG2 hepatoma cells, mostly greater than 50%, read-out: Viability of the cells at the highest concentrations used
Description: Data obtained from the measurement of the optical density in these assays were transformed to percentages in relation to the control group, considered to be 100% for the MTT, NRU, and TPC assays and 0% for the LDH assay (Figure 1).
The human hepatoma cell line (HepG2) was purchased from the American Type Culture Collection (ATCC HB-8065). These cells were cultured in Minimum Essential Medium Eagle (MEME) (ATCC). The murine fibroblast cell line (Balb/c 3T3 clone A31) (gift from Department of Swine Diseases of the National Veterinary Research Institute in Pulawy) was cultured in Dulbecco’s Modified Eagle’s Medium (DMEM) (ATCC). The media were supplemented with 10% BCS (Balb/c 3T3), 10% FBS (HepG2), 1% L-glutamine, and 1% antibiotic solution. The cells were maintained in 75 cm^2 cell culture flasks (Nunc, Roskilde, Denmark) in a humidified incubator, NuAire (Plymouth, MN, USA) at 37 °C, in an atmosphere of 5% CO2. The medium was refreshed every two or three days and the cells were trypsinized by 0.25% trypsin–0.02% EDTA after reaching 70–80% confluence. […]
The concentration ranges of compounds were chosen according to their solubility and their plasma level. […] Cytotoxicity was assessed after 72 h of exposure of the cells to the compounds. […]
The results of the tests were expressed as a mean ± SD. […] The IC50 values were calculated by GraphPad Prism 5 software (San Diego, CA, USA). […]

10T1/2 cell line = tested on: 10T1/2 cell line; set-up: method as in PMID 26828469; conditions: same observation as in this study; cited from earlier work
HepG2 cells = tested on: HepG2 cells; set-up: method as in doi:10.2478/v10213-012-0102-5; conditions: cited from earlier work
FaO cells = tested on: FaO cells; set-up: method as in doi:10.2478/v10213-012-0102-5; conditions: cited from earlier work
human fibroblasts (FMM1) = tested on: human fibroblasts (FMM1); set-up: method as in PMID 20857004; conditions: 50 µg/mL, 72 h treatment; cited from earlier work
IEC-6 cells = tested on: IEC-6 cells; set-up: method as in PMID 20946968; conditions: 84.8 µM, 24 h exposure; cited from earlier work
[2] = tested on: OVCAR-3 (ovarian) cell line; set-up: method as in PMID 18615197; conditions: 72 h; cited from earlier work
MB157 (breast) cell line = tested on: MB157 (breast) cell line; set-up: method as in PMID 18615197; conditions: 72 h; cited from earlier work
[3] = tested on: HeLa (cervical) cell line; set-up: method as in PMID 18615197; conditions: 72 h; cited from earlier work
H-ras 5RP7 cells = conditions: 24 h exposure; cited from earlier work
NIH/3T3 cells = conditions: 24 h exposure; cited from earlier work
[4] = tested on: murine fibroblasts (L929); set-up: method as in PMID 18364400; conditions: 24 h exposure; read-out: IC50, L929, MTT assay; cited from earlier work
[5] = tested on: murine fibroblasts (L929); set-up: method as in PMID 18364400; conditions: 24 h exposure; read-out: IC50, L929, NRU assay; cited from earlier work
HeLa cell lines = tested on: HeLa cell lines; set-up: method as in PMID 19836347; conditions: cited from earlier work

## Cc1ncc([N+](=O)[O-])n1CCO [Metronidazole]
[1]
  viability at 72 h: > 50%
10T1/2 cell line
  Cytotoxicity in 10T1/2 cell line: poorly cytotoxic
HepG2 cells
  Cytotoxicity in HepG2 cells: low cytotoxicity
FaO cells
  Cytotoxicity in FaO cells: low cytotoxicity
Human fibroblasts (FMM1)
  Decrease of viability of human fibroblasts (FMM1): 40%
IEC-6 cells
  Inhibition of viability of IEC-6 cells: 8%

## O=[N+]([O-])[O-].[Ag+] [Silver nitrate]
[2]
  IC50: 35 µM
MB157 (breast) cell line
  IC50: 5 µM
[3]
  IC50: 50 µM
H-ras 5RP7 cells
  IC50: 6.75 µM
NIH/3T3 cells
  IC50: 12.3 µM
[4]
  IC50: 3.57 µM
[5]
  IC50: 2.55 µM
HeLa cell lines
  IC50: 2.89 µM
